Experimental data taken from ChEMBL document CHEMBL5030514, “Discovery of Anti-TNBC Agents Targeting PTP1B: Total Synthesis, Structure-Activity Relationship, In Vitro and In Vivo Investigations of Jamunones” (J Med Chem, 2021).

Tests used:
[1] = test system: MCF7; experiment: Antiproliferative activity against human MCF-7 cells measured by MTT assay; type: functional, cell-based
[2] = test system: MDA-MB-231; experiment: Antiproliferative activity against human MDA-MB-231 cells measured by MTT assay; type: functional, cell-based

Structure (SMILES): CCCCCCCCCCCCCCCc1cc(=O)c2c(O)cc(O)c(C)c2o1
- IC50 [1]: 17.5 µM
- IC50 [2]: 6.79 µM

Structure (SMILES): CC/C=C\C/C=C\C/C=C\CCCCCCCc1cc(=O)c2c(O)cc(OCOC)c(C)c2o1
- IC50 [1]: 17.5 µM
- IC50 [2]: 6.79 µM

Structure (SMILES): CCCCC1(O)CC(=O)c2c(O)cc(O)cc2O1 (stereo not given)
- IC50 [1]: > 67.3 µM
- IC50 [2]: > 87 µM

Structure (SMILES): CC/C=C\C/C=C\C/C=C\CCCCCCCc1cc(=O)c2c(O)cc(O)c(C)c2o1
- IC50 [1]: 17.5 µM
- IC50 [2]: 6.79 µM

Structure (SMILES): CC/C=C\C/C=C\C/C=C\CCCCCCCC1(O)CC(=O)c2c(O)cc(O)cc2O1 (stereo not given)
- IC50 [1]: 17.5 µM
- IC50 [2]: 6.79 µM

Structure (SMILES): CC/C=C\C/C=C\C/C=C\CCCCCCCC1(O)CC(=O)c2c(O)c(C)c(O)c(C)c2O1 (stereo not given)
- IC50 [1]: 43.2 µM
- IC50 [2]: 42.8 µM

Structure (SMILES): CCCCC/C=C\C/C=C\CCCCCCCC1(O)CC(=O)c2c(O)c(C)c(O)c(C)c2O1 (stereo not given)
- IC50 [1]: 43.2 µM
- IC50 [2]: 42.8 µM

Structure (SMILES): CC/C=C\C/C=C\C/C=C\CCCCCCCc1cc(=O)c2c(O)c(C)c(O)cc2o1
- IC50 [1]: 17.5 µM
- IC50 [2]: 6.79 µM

Structure (SMILES): CCCCCCCCCCCCCCCc1cc(=O)c2c(O)c(C)c(O)c(C)c2o1
- IC50 [1]: > 67.3 µM
- IC50 [2]: > 87 µM

Structure (SMILES): CC/C=C\C/C=C\C/C=C\CCCCCCCc1cc(=O)c2c(O)cc(O)cc2o1
- IC50 [1]: 17.5 µM
- IC50 [2]: 6.79 µM

Structure (SMILES): CCCC/C=C\CCCCCCCCCC1(O)CC(=O)c2c(O)cc(OCOC)cc2O1 (stereo not given)
- IC50 [1]: 43.2 µM
- IC50 [2]: 42.8 µM

Structure (SMILES): CCCCCCCCCCCCCCCc1cc(=O)c2c(O)c(C)c(O)cc2o1
- IC50 [1]: 43.2 µM
- IC50 [2]: 42.8 µM

Structure (SMILES): CC/C=C\C/C=C\C/C=C\CCCCCCCc1cc(=O)c2c(O)c(C)c(OCOC)c(C)c2o1
- IC50 [1]: > 84.1 µM
- IC50 [2]: 16.1 µM

Structure (SMILES): CCCCCCCCCCCC1(O)CC(=O)c2c(O)cc(O)cc2O1 (stereo not given)
- IC50 [1]: 43.2 µM
- IC50 [2]: 42.8 µM

Structure (SMILES): CCCCC/C=C\C/C=C\CCCCCCCc1cc(=O)c2c(O)cc(OCOC)c(C)c2o1
- IC50 [1]: > 84.1 µM
- IC50 [2]: 16.1 µM

Structure (SMILES): CCCCCCCCCCCCCCCC1(O)CC(=O)c2c(O)c(C)c(O)c(C)c2O1 (stereo not given)
- IC50 [1]: > 100 µM
- IC50 [2]: 16.1 µM

Structure (SMILES): CC/C=C\C/C=C\C/C=C\CCCCCCCc1cc(=O)c2c(O)c(C)c(OCOC)cc2o1
- IC50 [1]: 17.5 µM
- IC50 [2]: 6.79 µM

Structure (SMILES): CCCC/C=C\CCCCCCCCCc1cc(=O)c2c(O)cc(O)cc2o1
- IC50 [1]: 17.5 µM
- IC50 [2]: 6.79 µM

Structure (SMILES): CCCC/C=C\CCCCCCCCCc1cc(=O)c2c(O)c(C)c(O)cc2o1
- IC50 [1]: 43.2 µM
- IC50 [2]: 42.8 µM

Structure (SMILES): CC/C=C\C/C=C\C/C=C\CCCCCCCc1cc(=O)c2c(O)c(C)c(O)c(C)c2o1
- IC50 [1]: 17.5 µM
- IC50 [2]: 6.79 µM

Structure (SMILES): CCCC/C=C/CCCCCCCCCC1(O)CC(=O)c2c(O)cc(O)cc2O1 (stereo not given)
- IC50 [1]: 33.9 µM
- IC50 [2]: 18.7 µM

Structure (SMILES): CCCCC/C=C\C/C=C\CCCCCCCc1cc(=O)c2c(O)c(C)c(OCOC)c(C)c2o1
- IC50 [1]: > 84.1 µM
- IC50 [2]: 16.1 µM

Structure (SMILES): CCCCCCCCCCCCCCCCCCCC1(O)CC(=O)c2c(O)cc(O)cc2O1 (stereo not given)
- IC50 [1]: > 67.3 µM
- IC50 [2]: > 87 µM

Structure (SMILES): CCCC/C=C\CCCCCCCCCc1cc(=O)c2c(O)c(C)c(OCOC)c(C)c2o1
- IC50 [1]: > 67.3 µM
- IC50 [2]: > 87 µM

Structure (SMILES): CCCC/C=C\CCCCCCCCCc1cc(=O)c2c(O)c(C)c(O)c(C)c2o1
- IC50 [1]: > 67.3 µM
- IC50 [2]: > 87 µM

Structure (SMILES): CC/C=C\C/C=C\C/C=C\CCCCCCCc1cc(=O)c2c(O)cc(OCOC)cc2o1
- IC50 [1]: 17.5 µM
- IC50 [2]: 6.79 µM

Structure (SMILES): CC/C=C\C/C=C\C/C=C\CCCCCCCC1(O)CC(=O)c2c(O)cc(OCOC)cc2O1 (stereo not given)
- IC50 [1]: 17.5 µM
- IC50 [2]: 6.79 µM

Structure (SMILES): CCCCCCCCCCCCCCCC1(O)CC(=O)c2c(O)cc(O)cc2O1 (stereo not given)
- IC50 [1]: 17.5 µM
- IC50 [2]: 6.79 µM

Structure (SMILES): CCCCC/C=C\C/C=C\CCCCCCCC1(O)CC(=O)c2c(O)cc(OCOC)cc2O1 (stereo not given)
- IC50 [1]: > 84.1 µM
- IC50 [2]: 16.1 µM

Structure (SMILES): CCCCCCCCCCCCCCCc1cc(=O)c2c(O)cc(O)cc2o1
- IC50 [1]: 17.5 µM
- IC50 [2]: 6.79 µM

Structure (SMILES): CCCCCCCCCCCCCCCc1cc(=O)c2c(O)cc(OCOC)c(C)c2o1
- IC50 [1]: > 67.3 µM
- IC50 [2]: > 87 µM

Structure (SMILES): CCCCC/C=C\C/C=C\CCCCCCCc1cc(=O)c2c(O)c(C)c(OCOC)cc2o1
- IC50 [1]: > 67.3 µM
- IC50 [2]: > 87 µM

Structure (SMILES): CCCCC/C=C\C/C=C\CCCCCCCC1(O)CC(=O)c2c(O)cc(O)cc2O1 (stereo not given)
- IC50 [1]: 17.5 µM
- IC50 [2]: 6.79 µM

Structure (SMILES): CCCCCCCCCCCCCCCc1cc(=O)c2c(O)c(C)c(OCOC)cc2o1
- IC50 [1]: > 67.3 µM
- IC50 [2]: > 87 µM

Structure (SMILES): CCCCC/C=C\C/C=C\CCCCCCCc1cc(=O)c2c(O)cc(O)c(C)c2o1
- IC50 [1]: 17.5 µM
- IC50 [2]: 6.79 µM

Structure (SMILES): CCCCC/C=C\C/C=C\CCCCCCCc1cc(=O)c2c(O)cc(OCOC)cc2o1
- IC50 [1]: > 67.3 µM
- IC50 [2]: > 87 µM

Structure (SMILES): CCCCCCCCCCCCCCCC1(O)CC(=O)c2c(O)cc(OCOC)cc2O1 (stereo not given)
- IC50 [1]: > 67.3 µM
- IC50 [2]: > 87 µM

Structure (SMILES): CCCC/C=C\CCCCCCCCCc1cc(=O)c2c(O)cc(O)c(C)c2o1
- IC50 [1]: 17.5 µM
- IC50 [2]: 6.79 µM

Structure (SMILES): CCCCC/C=C\C/C=C\CCCCCCCc1cc(=O)c2c(O)c(C)c(O)c(C)c2o1
- IC50 [1]: > 84.1 µM
- IC50 [2]: 16.1 µM

Structure (SMILES): CCCC/C=C\CCCCCCCCCc1cc(=O)c2c(O)c(C)c(OCOC)cc2o1
- IC50 [1]: > 67.3 µM
- IC50 [2]: > 87 µM

Structure (SMILES): CCCCCCCCCCCCCCCc1cc(=O)c2c(O)c(C)c(OCOC)c(C)c2o1
- IC50 [1]: > 67.3 µM
- IC50 [2]: > 87 µM

Structure (SMILES): CCCC/C=C\CCCCCCCCCc1cc(=O)c2c(O)cc(OCOC)cc2o1
- IC50 [1]: > 67.3 µM
- IC50 [2]: > 87 µM

Structure (SMILES): CCCCC/C=C\C/C=C\CCCCCCCc1cc(=O)c2c(O)cc(O)cc2o1
- IC50 [1]: 17.5 µM
- IC50 [2]: 6.79 µM

Structure (SMILES): CCCC/C=C\CCCCCCCCCc1cc(=O)c2c(O)cc(OCOC)c(C)c2o1
- IC50 [1]: > 67.3 µM
- IC50 [2]: > 87 µM

Structure (SMILES): CCCCC/C=C\C/C=C\CCCCCCCc1cc(=O)c2c(O)c(C)c(O)cc2o1
- IC50 [1]: > 84.1 µM
- IC50 [2]: 16.1 µM
